Earlier results as cited in US20060154981A1, “Method of reducing intraocular pressure and treating glaucoma” (Alcon, Inc., priority 2005, published 2006).

How the values were obtained:
IOP = conditions: rabbits
neutrophils = conditions: compared with lipoxin A4

In the case of `CCCCC[C@H](O)/C=C/C=C\C=C\C=C\[C@@H](O)[C@@H](O)CCCC(=O)OC` [methyl ester of lipoxin A4], the IOP lowering (IOP) is listed as “reported to lower IOP in rabbits”.

For `CCCCC[C@H](O)[C@H](O)CO` [compound 2], the “Inhibition of LTB4-induced chemotaxis of neutrophils” value (neutrophils) is listed as “inhibit LTB4-induced chemotaxis of neutrophils as potently as lipoxin A4”.
